Test results taken from patent EP0198522A1, “Heterocyclic herbicides” (SHELL INTERNATIONALE RESEARCH MAATSCHAPPIJ B.V., priority 1985, dated 1986).

Key:
Type in all cases: in vivo
[1] = system: barnyard grass, Echinochloa crusgalli; experiment: Herbicidal activity, post-emergence soil drench test; settings: 10 kg/ha soil drench; assessed visually thirteen days after drenching; 0-9 scale, 0 = growth as untreated control, 9 = death
Experimental: (§1) To evaluate their herbicidal activity, compounds according to the invention were tested using as representative range of plants: maize, Zea mays (Mz); rice, Oryza sativa (R); barnyard grass, Echinochloa crusgalli (BG); oat, Avena sativa (0); linseed, Linum usitatissisum (L); mustard, Sinapsis alba (M); sugar beet, Beta vulgaris (SB) and soya bean, Glycine max (S).
(§2) The tests fall into two categories, pre-emergence and post-emergence. […] The post-emergence tests involved two types of test, viz., soil drench and foliar spray tests. In the soil drench tests the soil in which the seedling plants of the above species were growing was drenched with a liquid formulation containing a compound of the invention, and in the foliar spray tests the seedling plants were sprayed with such a formulation.
(§3) The soil used in the tests was a prepared horticultural loam.
(§4) These acetone solutions were diluted with water and the resulting formulations applied at dosage levels corresponding to 5 kg or 1 kg of active material per hectare in a volume equivalent to 600 litres per hectare in the soil spray and foliar spray test, and at a dosage of level equivalent to 10 kilograms of active material per hectare in a volume equivalent to approximately 3,000 litres per hectare in the soil drench tests.
(§5) In the pre-emexgence tests untreated sown soil and in the post-emergence tests untreated soil bearing seedling plants were used as controls.
(§6) The herbicidal effects of the test compounds were assessed visually twelve days after spraying the foliage and the soil, and thirteen days after drenching the soil and were recorded on a 0-9 scale. A rating 0 indicates growth as untreated control, a rating 9 indicates death. An increase of 1 unit on the linear scale approximates to a 10% increase in the level of effect.

[2] = system: linseed, Linum usitatissisum; experiment: as above; settings: 10 kg/ha soil drench; assessed visually thirteen days after drenching; 0-9 scale, 0 = growth as untreated control, 9 = death
Experimental: as §1, §2, §3, §4, §5, §6

maize, Zea mays [3] = experiment: as above; settings: 10 kg/ha soil drench; assessed visually thirteen days after drenching; 0-9 scale, 0 = growth as untreated control, 9 = death
Experimental: as §1, §2, §3, §4, §5, §6

mustard, Sinapsis alba [4] = experiment: as above; settings: 10 kg/ha soil drench; assessed visually thirteen days after drenching; 0-9 scale, 0 = growth as untreated control, 9 = death
Experimental: as §1, §2, §3, §4, §5, §6

oat, Avena sativa [5] = experiment: as above; settings: 10 kg/ha soil drench; assessed visually thirteen days after drenching; 0-9 scale, 0 = growth as untreated control, 9 = death
Experimental: as §1, §2, §3, §4, §5, §6

rice, Oryza sativa [6] = experiment: as above; settings: 10 kg/ha soil drench; assessed visually thirteen days after drenching; 0-9 scale, 0 = growth as untreated control, 9 = death
Experimental: as §1, §2, §3, §4, §5, §6

soya bean, Glycine max [7] = experiment: as above; settings: 10 kg/ha soil drench; assessed visually thirteen days after drenching; 0-9 scale, 0 = growth as untreated control, 9 = death
Experimental: as §1, §2, §3, §4, §5, §6

[8] = system: sugar beet, Beta vulgaris; experiment: as above; settings: 10 kg/ha soil drench; assessed visually thirteen days after drenching; 0-9 scale, 0 = growth as untreated control, 9 = death
Experimental: as §1, §2, §3, §4, §5, §6

[9] = system: barnyard grass, Echinochloa crusgalli; experiment: Herbicidal activity, post-emergence foliar spray test; settings: assessed visually twelve days after spraying, 0-9 scale, 0 = growth as untreated control, 9 = death
Experimental: as §1, §2, §3, §4, §5, §6

[10] = system: linseed, Linum usitatissisum; experiment: as above; settings: assessed visually twelve days after spraying, 0-9 scale, 0 = growth as untreated control, 9 = death
Experimental: as §1, §2, §3, §4, §5, §6

maize, Zea mays [11] = experiment: as above; settings: assessed visually twelve days after spraying, 0-9 scale, 0 = growth as untreated control, 9 = death
Experimental: as §1, §2, §3, §4, §5, §6

mustard, Sinapsis alba [12] = experiment: as above; settings: assessed visually twelve days after spraying, 0-9 scale, 0 = growth as untreated control, 9 = death
Experimental: as §1, §2, §3, §4, §5, §6

oat, Avena sativa [13] = experiment: as above; settings: assessed visually twelve days after spraying, 0-9 scale, 0 = growth as untreated control, 9 = death
Experimental: as §1, §2, §3, §4, §5, §6

rice, Oryza sativa [14] = experiment: as above; settings: assessed visually twelve days after spraying, 0-9 scale, 0 = growth as untreated control, 9 = death
Experimental: as §1, §2, §3, §4, §5, §6

soya bean, Glycine max [15] = experiment: as above; settings: assessed visually twelve days after spraying, 0-9 scale, 0 = growth as untreated control, 9 = death
Experimental: as §1, §2, §3, §4, §5, §6

[16] = system: sugar beet, Beta vulgaris; experiment: as above; settings: assessed visually twelve days after spraying, 0-9 scale, 0 = growth as untreated control, 9 = death
Experimental: as §1, §2, §3, §4, §5, §6

[17] = system: barnyard grass, Echinochloa crusgalli; experiment: Herbicidal activity, pre-emergence test (soil spray); settings: assessed visually twelve days after spraying, 0-9 scale, 0 = growth as untreated control, 9 = death
Experimental: as §1, §2, §3, §4, §5, §6

[18] = system: linseed, Linum usitatissisum; experiment: as above; settings: assessed visually twelve days after spraying, 0-9 scale, 0 = growth as untreated control, 9 = death
Experimental: as §1, §2, §3, §4, §5, §6

maize, Zea mays [19] = experiment: as above; settings: assessed visually twelve days after spraying, 0-9 scale, 0 = growth as untreated control, 9 = death
Experimental: as §1, §2, §3, §4, §5, §6

mustard, Sinapsis alba [20] = experiment: as above; settings: assessed visually twelve days after spraying, 0-9 scale, 0 = growth as untreated control, 9 = death
Experimental: as §1, §2, §3, §4, §5, §6

oat, Avena sativa [21] = experiment: as above; settings: assessed visually twelve days after spraying, 0-9 scale, 0 = growth as untreated control, 9 = death
Experimental: as §1, §2, §3, §4, §5, §6

rice, Oryza sativa [22] = experiment: as above; settings: assessed visually twelve days after spraying, 0-9 scale, 0 = growth as untreated control, 9 = death
Experimental: as §1, §2, §3, §4, §5, §6

soya bean, Glycine max [23] = experiment: as above; settings: assessed visually twelve days after spraying, 0-9 scale, 0 = growth as untreated control, 9 = death
Experimental: as §1, §2, §3, §4, §5, §6

[24] = system: sugar beet, Beta vulgaris; experiment: as above; settings: assessed visually twelve days after spraying, 0-9 scale, 0 = growth as untreated control, 9 = death
Experimental: as §1, §2, §3, §4, §5, §6

| SMILES | Soil drench 10/kg/ha BG (herbicidal effect rating) [1] | Soil drench 10/kg/ha L (herbicidal effect rating) [2] | Soil drench 10/kg/ha Mz (herbicidal effect rating) (maize, Zea mays [3]) | Soil drench 10/kg/ha M (herbicidal effect rating) (mustard, Sinapsis alba [4]) | Soil drench 10/kg/ha O (herbicidal effect rating) (oat, Avena sativa [5]) | Soil drench 10/kg/ha R (herbicidal effect rating) (rice, Oryza sativa [6]) | Soil drench 10/kg/ha S (herbicidal effect rating) (soya bean, Glycine max [7]) | Soil drench 10/kg/ha SB (herbicidal effect rating) [8] | Foliar spray BG (herbicidal effect rating) ([9]; Dosage 1 kg/ha) | Foliar spray BG (herbicidal effect rating) ([9]; Dosage 5 kg/ha) | Foliar spray L (herbicidal effect rating) ([10]; Dosage 1 kg/ha) | Foliar spray L (herbicidal effect rating) ([10]; Dosage 5 kg/ha) | Foliar spray Mz (herbicidal effect rating) (maize, Zea mays [11]; Dosage 1 kg/ha) | Foliar spray Mz (herbicidal effect rating) (maize, Zea mays [11]; Dosage 5 kg/ha) | Foliar spray M (herbicidal effect rating) (mustard, Sinapsis alba [12]; Dosage 1 kg/ha) | Foliar spray M (herbicidal effect rating) (mustard, Sinapsis alba [12]; Dosage 5 kg/ha) | Foliar spray O (herbicidal effect rating) (oat, Avena sativa [13]; Dosage 1 kg/ha) | Foliar spray O (herbicidal effect rating) (oat, Avena sativa [13]; Dosage 5 kg/ha) | Foliar spray R (herbicidal effect rating) (rice, Oryza sativa [14]; Dosage 1 kg/ha) | Foliar spray R (herbicidal effect rating) (rice, Oryza sativa [14]; Dosage 5 kg/ha) | also measured |
| --- | --- | --- | --- | --- | --- | --- | --- | --- | --- | --- | --- | --- | --- | --- | --- | --- | --- | --- | --- | --- | --- |
| COC(=O)c1cc2cc3c(cc2nc1C1=NC(C)(C(C)C)C(=O)N1C(C)=O)OCO3 (centres unmarked) [Example 3, Methyl-2-(1-acetyl-4-isopropyl-4-methyl-5-oxo-2-imidazolin-2-yl)-[1,3]-dioxolo[4,5-g] quinoline-3-carboxylate] | 7 | 6 | 5 | 7 | 6 | 5 | 0 | 8 | 5 | 7 | 5 | 6 | 4 | 6 | 3 | 6 | 3 | 5 | 2 | 5 | Foliar spray S (herbicidal effect rating) (soya bean, Glycine max [15]; Dosage 1 kg/ha): 1; Foliar spray S (herbicidal effect rating) (soya bean, Glycine max [15]; Dosage 5 kg/ha): 3; Foliar spray SB (herbicidal effect rating) ([16]; Dosage 1 kg/ha): 5; Foliar spray SB (herbicidal effect rating) ([16]; Dosage 5 kg/ha): 7; Pre-emergence BG (herbicidal effect rating) ([17]; Dosage 1 kg/ha): 4; Pre-emergence BG (herbicidal effect rating) ([17]; Dosage 5 kg/ha): 7; Pre-emergence L (herbicidal effect rating) ([18]; Dosage 1 kg/ha): 5; Pre-emergence L (herbicidal effect rating) ([18]; Dosage 5 kg/ha): 8; Pre-emergence Mz (herbicidal effect rating) (maize, Zea mays [19]; Dosage 1 kg/ha): 4; Pre-emergence Mz (herbicidal effect rating) (maize, Zea mays [19]; Dosage 5 kg/ha): 8; Pre-emergence M (herbicidal effect rating) (mustard, Sinapsis alba [20]; Dosage 1 kg/ha): 2; Pre-emergence M (herbicidal effect rating) (mustard, Sinapsis alba [20]; Dosage 5 kg/ha): 4; Pre-emergence O (herbicidal effect rating) (oat, Avena sativa [21]; Dosage 1 kg/ha): 4; Pre-emergence O (herbicidal effect rating) (oat, Avena sativa [21]; Dosage 5 kg/ha): 6; Pre-emergence R (herbicidal effect rating) (rice, Oryza sativa [22]; Dosage 1 kg/ha): 2; Pre-emergence R (herbicidal effect rating) (rice, Oryza sativa [22]; Dosage 5 kg/ha): 5; Pre-emergence S (herbicidal effect rating) (soya bean, Glycine max [23]; Dosage 1 kg/ha): 0; Pre-emergence S (herbicidal effect rating) (soya bean, Glycine max [23]; Dosage 5 kg/ha): 0; Pre-emergence SB (herbicidal effect rating) ([24]; Dosage 1 kg/ha): 4; Pre-emergence SB (herbicidal effect rating) ([24]; Dosage 5 kg/ha): 8 |
| CC(C)C1(C)NC(c2nc3cc4c(cc3cc2C(=O)[O-])OCO4)=NC1=O.[Na+] (centres unmarked) [Example 4, Sodivmt-2-(5-isopropyl-5-methyl-4-oxo-2-imidazolin-2-yl)-[1,3]-dioxolo[4,5-g] quinoline-3-carboxylic acid (salt)] | 8 | 6 | 5 | 8 | 4 | 5 | 6 | 8 | 7 | 8 | 6 | 6 | 4 | 6 | 8 | 8 | 4 | 4 | 4 | 4 | Foliar spray S (herbicidal effect rating) (soya bean, Glycine max [15]; Dosage 1 kg/ha): 2; Foliar spray S (herbicidal effect rating) (soya bean, Glycine max [15]; Dosage 5 kg/ha): 3; Foliar spray SB (herbicidal effect rating) ([16]; Dosage 1 kg/ha): 7; Foliar spray SB (herbicidal effect rating) ([16]; Dosage 5 kg/ha): 8; Pre-emergence BG (herbicidal effect rating) ([17]; Dosage 1 kg/ha): 8; Pre-emergence BG (herbicidal effect rating) ([17]; Dosage 5 kg/ha): 8; Pre-emergence L (herbicidal effect rating) ([18]; Dosage 1 kg/ha): 8; Pre-emergence L (herbicidal effect rating) ([18]; Dosage 5 kg/ha): 9; Pre-emergence Mz (herbicidal effect rating) (maize, Zea mays [19]; Dosage 1 kg/ha): 8; Pre-emergence Mz (herbicidal effect rating) (maize, Zea mays [19]; Dosage 5 kg/ha): 8; Pre-emergence M (herbicidal effect rating) (mustard, Sinapsis alba [20]; Dosage 1 kg/ha): 7; Pre-emergence M (herbicidal effect rating) (mustard, Sinapsis alba [20]; Dosage 5 kg/ha): 7; Pre-emergence O (herbicidal effect rating) (oat, Avena sativa [21]; Dosage 1 kg/ha): 5; Pre-emergence O (herbicidal effect rating) (oat, Avena sativa [21]; Dosage 5 kg/ha): 6; Pre-emergence R (herbicidal effect rating) (rice, Oryza sativa [22]; Dosage 1 kg/ha): 8; Pre-emergence R (herbicidal effect rating) (rice, Oryza sativa [22]; Dosage 5 kg/ha): 9; Pre-emergence S (herbicidal effect rating) (soya bean, Glycine max [23]; Dosage 1 kg/ha): 2; Pre-emergence S (herbicidal effect rating) (soya bean, Glycine max [23]; Dosage 5 kg/ha): 5; Pre-emergence SB (herbicidal effect rating) ([24]; Dosage 1 kg/ha): 8; Pre-emergence SB (herbicidal effect rating) ([24]; Dosage 5 kg/ha): 8 |
